Results as given in PubChem BioAssay AID1745844 (Carcinogenic Potency Database (CPDB), 2022).
“And” between values parts separate entries of the source, which are not always exact repeats. Identical values can stand only once. The source made the active and inactive calls. How the calls were made is not given here.

Test system: rodent lifetime carcinogenesis bioassay, tumor incidence TD50
Assay: carcinogenic potency in animals, long-term in vivo studies, CPDB compilation (AID 1745844)

SMILES: NNC(=O)c1ccncc1
- TD50 (hamster, strain Syrian Golden, females, in drinking water, site: forestomach, lesion: papilloma, dosed 121 weeks, study length 121 weeks): 575 mg/kg/day (inactive)
- carcinogen call (hamster, strain Syrian Golden, males, in drinking water, site: liver, lesion: hemangioma, dosed 130 weeks, study length 130 weeks): negative (inactive)
- TD50 (mouse, strain A, males, by gavage, site: liver, lesion: carcinoma, dosed 79 weeks, study length 79 weeks): 159 mg/kg/day
- TD50 (mouse, strain A, males, by gavage, site: lung, lesion: carcinoma, dosed 79 weeks, study length 79 weeks): 206 mg/kg/day
- TD50 (mouse, strain A, males, by gavage, site: several sites, sites named in the paper, lesion: carcinoma, dosed 79 weeks, study length 79 weeks): 219 mg/kg/day
- TD50 (mouse, strain AKR, females, in drinking water, site: lung, lesion: one or several types, types not named, dosed 70 weeks, study length 70 weeks): 89.6 mg/kg/day (inactive)
- carcinogen call (mouse, strain AKR, males, in drinking water, site: liver, lesion: hemangioma, dosed 59 weeks, study length 59 weeks): negative (inactive)
- TD50 (mouse, strain AKR, males, in drinking water, site: lung, lesion: one or several types, types not named, dosed 59 weeks, study length 59 weeks): 202 mg/kg/day (inactive)
- TD50 (mouse, strain C3H (MTV+), females, in drinking water, site: lung, lesion: adenoma, dosed 72 weeks, study length 72 weeks): 755 mg/kg/day
- TD50 (mouse, strain C3H (MTV+), males, in drinking water, site: lung, lesion: adenoma, dosed 72 weeks, study length 72 weeks): 219 mg/kg/day
- TD50 (mouse, strain CBA/Cb/Se, females, by gavage, site: liver, lesion: hepatoma, dosed 36 weeks, study length 84 weeks): 187 mg/kg/day (inactive)
- TD50 (mouse, strain CBA/Cb/Se, females, by gavage, site: lung, lesion: several types, types named in the paper, dosed 36 weeks, study length 84 weeks): 11.2 mg/kg/day
- TD50 (mouse, strain CBA/Cb/Se, males, by gavage, site: liver, lesion: hepatoma, dosed 36 weeks, study length 74 weeks): 165 mg/kg/day (inactive)
- TD50 (mouse, strain CBA/Cb/Se, males, by gavage, site: lung, lesion: several types, types named in the paper, dosed 36 weeks, study length 74 weeks): 12.2 mg/kg/day
- TD50 (mouse, strain Not specified, both sexes, by gavage, site: any site (literature study), lesion: several types, types named in the paper, dosed 52 weeks, study length 52 weeks): 14.1 mg/kg/day
- TD50 (mouse, strain Not specified, both sexes, by gavage, site: lung, lesion: adenoma, dosed 52 weeks, study length 52 weeks): 19.3 mg/kg/day
- TD50 (mouse, strain Not specified, both sexes, by gavage, site: mammary gland, lesion: adenocarcinoma, dosed 52 weeks, study length 52 weeks): 80.9 mg/kg/day
- carcinogen call (mouse, strain Swiss albino, females, in drinking water, site: liver, lesion: hemangioma, dosed 80 weeks, study length 80 weeks): negative (inactive)
- carcinogen call (mouse, strain Swiss albino, females, in drinking water, site: liver, lesion: hemangioma, dosed 101 weeks, study length 106 weeks): negative (inactive)
- TD50 (mouse, strain Swiss albino, females, in drinking water, site: lung, lesion: adenocarcinoma, dosed 80 weeks, study length 80 weeks): 435 mg/kg/day
- TD50 (mouse, strain Swiss albino, females, in drinking water, site: lung, lesion: adenoma, dosed 80 weeks, study length 80 weeks): 189 mg/kg/day
- TD50 (mouse, strain Swiss albino, females, in drinking water, site: lung, lesion: adenoma, dosed 101 weeks, study length 106 weeks): 386 mg/kg/day
- TD50 (mouse, strain Swiss albino, females, in drinking water, site: lung, lesion: several types, types named in the paper, dosed 80 weeks, study length 80 weeks): 153 mg/kg/day
- carcinogen call (mouse, strain Swiss albino, males, in drinking water, site: liver, lesion: hemangioma, dosed 80 weeks, study length 80 weeks): negative (inactive)
- TD50 (mouse, strain Swiss albino, males, in drinking water, site: lung, lesion: adenoma, dosed 80 weeks, study length 80 weeks): 124 mg/kg/day
- TD50 (mouse, strain Swiss albino, males, in drinking water, site: lung, lesion: adenoma, dosed 86 weeks, study length 87 weeks): 104 mg/kg/day
- TD50 (mouse, strain Swiss, both sexes, by gavage, site: lung, lesion: adenocarcinoma, dosed 95 weeks, study length 95 weeks): 28.8 mg/kg/day
- TD50 (mouse, strain Swiss, both sexes, by gavage, site: lung, lesion: one or several types, types not named, dosed 97 weeks, study length 97 weeks): 24.5 mg/kg/day
- TD50 (mouse, strain Swiss, females, by gavage, site: liver, lesion: carcinoma, dosed 81 weeks, study length 83 weeks): 88.6 mg/kg/day
- TD50 (mouse, strain Swiss, females, by gavage, site: lung, lesion: carcinoma, dosed 81 weeks, study length 83 weeks): 88.6 mg/kg/day
- TD50 (mouse, strain Swiss, females, by gavage, site: lung, lesion: carcinoma, dosed 83 weeks, study length 83 weeks): 53.1 mg/kg/day
- TD50 (mouse, strain Swiss, females, by gavage, site: several sites, sites named in the paper, lesion: carcinoma, dosed 81 weeks, study length 83 weeks): 39.9 mg/kg/day
- TD50 (mouse, strain Swiss, females, by gavage, site: several sites, sites named in the paper, lesion: carcinoma, dosed 83 weeks, study length 83 weeks): 53.1 mg/kg/day
- TD50 (mouse, strain Swiss, males, by gavage, site: liver, lesion: carcinoma, dosed 79 weeks, study length 79 weeks): 88.8 mg/kg/day and 71.3 mg/kg/day
- TD50 (mouse, strain Swiss, males, by gavage, site: liver, lesion: carcinoma, dosed 85 weeks, study length 85 weeks): 211 mg/kg/day
- TD50 (mouse, strain Swiss, males, by gavage, site: lung, lesion: carcinoma, dosed 79 weeks, study length 79 weeks): 41.1 mg/kg/day and 39.2 mg/kg/day
- TD50 (mouse, strain Swiss, males, by gavage, site: lung, lesion: carcinoma, dosed 85 weeks, study length 85 weeks): 28.9 mg/kg/day
- TD50 (mouse, strain Swiss, males, by gavage, site: several sites, sites named in the paper, lesion: carcinoma, dosed 79 weeks, study length 79 weeks): 25.7 mg/kg/day and 21.2 mg/kg/day
- TD50 (mouse, strain Swiss, males, by gavage, site: several sites, sites named in the paper, lesion: carcinoma, dosed 85 weeks, study length 85 weeks): 24 mg/kg/day
- TD50 (rat, strain Cb/Sc, females, in drinking water, site: mammary gland, lesion: fibroadenoma, dosed 48 weeks, study length 64 weeks): 120 mg/kg/day
- TD50 (rat, strain Cb/Sc, males, in drinking water, site: liver, lesion: one or several types, types not named, dosed 48 weeks, study length 84 weeks): 199 mg/kg/day
- TD50 (rat, strain Cb/Sc, males, in drinking water, site: lung, lesion: several types, types named in the paper, dosed 48 weeks, study length 84 weeks): 1070 mg/kg/day

SMILES: C=CCN(CC(C)O)N=O (stereo not given)
- TD50 (rat, strain Fischer 344, females, in drinking water, site: esophagus, lesion: several types, types named in the paper, dosed 50 weeks, study length 65 weeks): 4.67 mg/kg/day
- TD50 (rat, strain Fischer 344, females, in drinking water, site: liver, lesion: hepatocellular carcinoma, dosed 50 weeks, study length 65 weeks): 1.38 mg/kg/day
- TD50 (rat, strain Fischer 344, females, in drinking water, site: nasal cavity, lesion: several types, types named in the paper, dosed 50 weeks, study length 65 weeks): 0.877 mg/kg/day

SMILES: Nc1ccccc1-c1ccccc1
- TD50 (mouse, strain B6C3F1, females, in feed, site: all sites, lesion: angiosarcoma + hemangioma, dosed 103 weeks, study length 104 weeks): 1120 mg/kg/day
- TD50 (mouse, strain B6C3F1, females, in feed, site: all sites, lesion: angiosarcoma, dosed 103 weeks, study length 104 weeks): 1280 mg/kg/day
- TD50 (mouse, strain B6C3F1, females, in feed, site: any site (literature study), lesion: several types, types named in the paper, dosed 103 weeks, study length 104 weeks): 1880 mg/kg/day
- TD50 (mouse, strain B6C3F1, females, in feed, site: liver, lesion: hepatocellular adenoma + hepatocellular carcinoma + neoplastic nodule, dosed 103 weeks, study length 104 weeks): 2000 mg/kg/day
- TD50 (mouse, strain B6C3F1, females, in feed, site: lung, lesion: alveolar/bronchiolar adenoma + alveolar/bronchiolar carcinoma, dosed 103 weeks, study length 104 weeks): 26100 mg/kg/day
- TD50 (mouse, strain B6C3F1, males, in feed, site: all sites, lesion: angiosarcoma + hemangioma + hemangiosarcoma, dosed 103 weeks, study length 104 weeks): 1250 mg/kg/day
- TD50 (mouse, strain B6C3F1, males, in feed, site: all sites, lesion: angiosarcoma + hemangiosarcoma, dosed 103 weeks, study length 104 weeks): 1810 mg/kg/day
- TD50 (mouse, strain B6C3F1, males, in feed, site: any site (literature study), lesion: several types, types named in the paper, dosed 103 weeks, study length 104 weeks): 720 mg/kg/day
- TD50 (mouse, strain B6C3F1, males, in feed, site: liver, lesion: hepatocellular adenoma + hepatocellular carcinoma + neoplastic nodule, dosed 103 weeks, study length 104 weeks): 1700 mg/kg/day
- carcinogen call (rat, strain Fischer 344, females, in feed, site: any site (literature study), lesion: several types, types named in the paper, dosed 103 weeks, study length 105 weeks): negative (inactive)
- TD50 (rat, strain Fischer 344, females, in feed, site: liver, lesion: hepatocellular adenoma + hepatocellular carcinoma + neoplastic nodule, dosed 103 weeks, study length 105 weeks): 363 mg/kg/day
- carcinogen call (rat, strain Fischer 344, males, in feed, site: any site (literature study), lesion: several types, types named in the paper, dosed 103 weeks, study length 104 weeks): negative (inactive)

SMILES: C=C1C(C)(C)[C@@]2(Cl)C(Cl)[C@]1(Cl)C(Cl)(Cl)C2(Cl)Cl (stereo not given in full)
- TD50 (mouse, strain B6AKF1, males, oral dosing, site: any site (literature study), lesion: several types, types named in the paper, dosed 79 weeks, study length 79 weeks): 0.75 mg/kg/day
- TD50 (mouse, strain B6AKF1, males, oral dosing, site: liver, lesion: hepatoma, dosed 79 weeks, study length 79 weeks): 0.644 mg/kg/day
- TD50 (mouse, strain B6C3F1, females, oral dosing, site: any site (literature study), lesion: several types, types named in the paper, dosed 79 weeks, study length 79 weeks): 3.37 mg/kg/day
- TD50 (mouse, strain B6C3F1, females, oral dosing, site: lung, lesion: adenoma, dosed 79 weeks, study length 79 weeks): 10.7 mg/kg/day
- TD50 (mouse, strain B6C3F1, males, oral dosing, site: all sites, lesion: reticulum-cell sarcoma, dosed 79 weeks, study length 79 weeks): 1.41 mg/kg/day
- TD50 (mouse, strain B6C3F1, males, oral dosing, site: any site (literature study), lesion: several types, types named in the paper, dosed 79 weeks, study length 79 weeks): 0.75 mg/kg/day
- TD50 (mouse, strain B6C3F1, males, oral dosing, site: liver, lesion: hepatoma, dosed 79 weeks, study length 79 weeks): 4 mg/kg/day
- TD50 (mouse, strain B6C3F1, males, oral dosing, site: lung, lesion: adenoma, dosed 79 weeks, study length 79 weeks): 8.29 mg/kg/day
